{"source": "patent US11685761B2", "about": "“Cyclic di-nucleotide compounds as sting agonists” (Merck Sharp & Dohme Corp., priority 2017, dated 2023)", "key": {"[1]": {"system": "IFN-β secretion from THP1 cells", "experiment": "IFN-β secretion in THP1 cell culture (5 h)", "type": "cell-based, human", "conditions": "THP1 cells, 5 h incubation, compound at 30 μM, 30 uM cGAMP = 100%; for activation at 30 µM: Homo sapiens, THP-1, 5 h, read-out: % Effect at 30 μM relative to 2′3′-cGAMP", "method_in_brief": "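THP1 cells at 0.8×10^6/mL were incubated with compounds for 5 h at 37 °C, and secreted IFN-β in the supernatant was measured by AlphaLISA. Percent effect was normalised to 30 uM cGAMP (positive) and 0.3% DMSO (negative) controls. EC50 came from a 4-parameter fit.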"}, "full-length HAQ STING": {"target": "T1, full-length HAQ STING (Homo sapiens, UniProt Q86WV6, G230A/H232R/R293Q/R71H)", "T1 construct": "made in house; host or cells: Trichoplusia ni (Hi-Five) insect cells, baculovirus generated in Sf21; crude membranes", "T1 sequence (Q86WV6 with tags, fused parts or gaps R71H/G230A/H232R/R293Q)": "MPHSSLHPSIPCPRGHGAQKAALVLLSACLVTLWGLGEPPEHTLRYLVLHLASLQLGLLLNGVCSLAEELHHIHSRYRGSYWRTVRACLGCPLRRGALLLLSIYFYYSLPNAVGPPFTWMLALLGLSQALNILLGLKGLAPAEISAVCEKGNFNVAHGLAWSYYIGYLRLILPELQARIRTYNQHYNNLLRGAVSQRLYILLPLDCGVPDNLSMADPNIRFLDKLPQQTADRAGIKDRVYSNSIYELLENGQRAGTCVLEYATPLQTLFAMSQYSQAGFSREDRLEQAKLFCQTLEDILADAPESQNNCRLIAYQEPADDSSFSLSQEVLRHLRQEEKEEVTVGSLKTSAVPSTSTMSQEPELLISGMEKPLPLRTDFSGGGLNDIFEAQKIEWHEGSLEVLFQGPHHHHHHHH", "experiment": "3H-cGAMP filtration binding assay (HAQ STING)", "conditions": "competition with tritiated cGAMP ligand; T. ni cell membranes overexpressing full-length HAQ STING"}, "full-length WT STING": {"target": "T2, full-length WT STING (Homo sapiens, UniProt Q86WV6, H232R)", "T2 construct": "made in house; host or cells: Trichoplusia ni insect cells, baculovirus generated in Sf21; crude membranes", "T2 sequence (Q86WV6 with tags, fused parts or gaps H232R)": "as the sequence (Q86WV6 with tags, fused parts or gaps R71H/G230A/H232R/R293Q) above, with H71R, A230G, Q293R counted along it", "experiment": "3H-cGAMP filtration binding assay (WT STING)", "conditions": "competition with tritiated cGAMP ligand; T. ni cell membranes overexpressing full-length WT STING", "experimental": "The ability of compounds to bind STING is quantified by their ability to compete with tritiated cGAMP ligand for human STING receptor membrane using a radioactive filter-binding assay. The binding assay employs STING receptor obtained from Trichoplusia ni cell membranes (T. ni; Expression Systems, cat #94-002F, www.expressionsystems.com) overexpressing full-length WT STING and tritiated cGAMP ligand.\nThe basic WT STING filtration assay protocol is as follows:\n16 nM of [^3H] c-GAMP ligand was prepared by diluting into assay buffer, and 50 uL of this working stock was manually added to each well of the assay plate. After ligand addition, 2 uL of either titrated test compound, DMSO control (Sigma #276855), or cold cGAMP control was added to the appropriate wells using a BIOMEK FX. The serially titrated compound was prepared on a Hamilton STARPlus CORE in a 96-well plate (Greiner, #651201) using a 1:3 ten-point dose response format. Following compound addition, a 2.2 ug/ml working concentration of STING membrane (SEQ. ID. No. 3) was prepared by diluting concentrated membrane into assay buffer (1×PBS; Invitrogen #SH30028.02) and douncing 7× using a manual tissue homogenizer (Wheaton, #357546). 148 uL of this prepared membrane was then manually added to each well of a 96-well deep-well polypropylene plate (Fisher Scientific, #12-566-121). Compound, ligand, and membrane then incubated for 60 min at RT before the contents of each assay plate were filtered through a 96-well GF/B filter plate (PerkinElmer, #6005250) using a TOMTEC MACH III Cell Harvester equipped with 20 mM HEPES buffer (Fisher Scientific, #BP299500). The filter plates were then dried at 55° C. for 30 min using a pressurized VWR oven before 30 uL of ULTIMA GOLD F scintillate was added to each well. Tritium levels for each reaction well were then measured using a PerkinElmer TopCount plate reader.\nAfter normalization to controls, the percent activity for each compound concentration was calculated by measuring the amount of remaining radioactivity. The plot of percent activity versus the log of compound concentration was fit with a 4-parameter dose response equation to calculate EC50 values."}}, "data": [{"smiles": "Nc1nc2c(nnn2[C@@H]2O[C@@H]3COP(=O)(S)O[C@H]4[C@H](F)[C@H](n5ccc6c(=O)[nH]cnc65)O[C@@H]4COP(=O)(S)O[C@@H]2[C@H]3F)c(=O)[nH]1", "note": "(stereo partly drawn) [Example 48, 5-amino-3-[(5R,7R,8S,12aR,14R,15S,15aR,16S)-15,16-difluoro-2,10-dioxido-14-(4-oxo-3,4-dihydro-7H-pyrrolo[2,3-d]pyrimidin-7-yl)-2,10-disulfanyl-octahydro-12H-5,8-methanofuro[3,2-l] [1,3,6,9,11,2,10]pentaoxadiphosphacyclotetradecin-7-yl]-3,6-dihydro-7H-[1,2,3]triazolo[4,5-d]pyrimidin-7-one]", "values": [{"measurement": "activation at 30 µM", "setting": "[1]", "result": 159, "unit": "%"}, {"measurement": "EC50", "setting": "full-length HAQ STING", "result": 2, "unit": "nM"}, {"measurement": "EC50", "setting": "full-length WT STING", "result": 205, "unit": "nM"}]}, {"smiles": "Nc1ncnc2c1ncn2[C@@H]1O[C@@H]2CO[P@@](=O)(S)O[C@@H]3[C@H](O)[C@@H](CO[P@@](=O)(S)O[C@H]2[C@H]1O)O[C@H]3n1ccc(=O)n2ccnc12", "note": "(single isomer, unassigned) [Example 1]", "values": [{"measurement": "activation at 30 µM", "setting": "[1]", "result": 143, "unit": "%"}, {"measurement": "EC50", "setting": "full-length HAQ STING", "result": 77, "unit": "nM"}, {"measurement": "EC50", "setting": "full-length WT STING", "result": 1640, "unit": "nM"}]}, {"smiles": "Nc1ncnc2c1ncn2[C@@H]1O[C@@H]2CO[P@@](=O)(S)O[C@@H]3[C@H](O)[C@@H](CO[P@@](=O)(S)O[C@H]2[C@@H]1F)O[C@H]3n1ccc(=O)c2nccn21", "note": "[Example 13, 5-[(2R,5R,7R,8R,10R,12aR,14R,15S,15aR, 16R)-14-(6-amino-9H-purin-9-yl)-15-fluoro-16-hydroxy-2,10-dioxido-2,10-disulfanyloctahydro-12H-5,8-methanofuro[3,2-l][1,3,6,9,11,2,10]pentaoxadiphosphacyclotetradecin-7-yl]imidazo [1,2-b]pyridazin-8(5H)-one]", "values": [{"measurement": "activation at 30 µM", "setting": "[1]", "result": 334, "unit": "%"}, {"measurement": "EC50", "setting": "full-length HAQ STING", "result": 238, "unit": "nM"}, {"measurement": "EC50", "setting": "full-length WT STING", "result": 1960, "unit": "nM"}]}, {"smiles": "Nc1nc2c(ncn2[C@@H]2O[C@@H]3CO[P@@](=O)(S)O[C@H]4C[C@H](n5ccc6c(=O)[nH]cnc65)O[C@@H]4CO[P@@](=O)(S)O[C@@H]2C3)c(=O)[nH]1", "note": "(single isomer, unassigned) [Example 38]", "values": [{"measurement": "activation at 30 µM", "setting": "[1]", "result": 109, "unit": "%"}, {"measurement": "EC50", "setting": "full-length HAQ STING", "result": 1, "unit": "nM"}, {"measurement": "EC50", "setting": "full-length WT STING", "result": 393, "unit": "nM"}]}, {"smiles": "Nc1ncnc2c1ccn2[C@H]1C[C@@H]2O[P@@](=O)(S)OC[C@H]3O[C@@H](n4ccc(=O)n5ccnc45)[C@H](O[P@](=O)(S)OC[C@H]2O1)[C@@H]3O", "note": "[Example 5, 8-[(2S,5R,7R,8R,10R,12aR,14R,15aS,16R)-14-(4-amino-7H-pyrrolo[2,3-d]pyrimidin-7-yl)-16-hydroxy-2,10-dioxido-2,10-disulfanyloctahydro-12H-5,8-methanofuro[3,2-l][1,3,6,9,11,2,10]pentaoxadiphosphacyclotetradecin-7-yl]imidazo [1,2-a]pyrimidin-5(8H)-one]", "values": [{"measurement": "activation at 30 µM", "setting": "[1]", "result": 39, "unit": "%"}, {"measurement": "EC50", "setting": "full-length HAQ STING", "result": 563, "unit": "nM"}, {"measurement": "EC50", "setting": "full-length WT STING", "result": 10300, "unit": "nM"}]}, {"smiles": "Nc1nc2c(ncn2[C@@H]2O[C@@H]3COP(=O)(S)O[C@H]4[C@H](F)[C@H](n5ccc6c(=O)[nH]cnc65)O[C@@H]4COP(=O)(S)O[C@@H]2[C@@H]3F)c(=O)[nH]1", "note": "(single isomer, unassigned) [Example 40]", "values": [{"measurement": "% Effect at 30 μM relative to 2′3′-cGAMP", "setting": "[1]", "result": 150, "unit": "%"}, {"measurement": "EC50", "setting": "full-length HAQ STING", "result": 5, "unit": "nM"}, {"measurement": "EC50", "setting": "full-length WT STING", "result": 2830, "unit": "nM"}]}, {"smiles": "Nc1nc2c(nnn2[C@@H]2O[C@@H]3COP(=O)(S)O[C@H]4C[C@H](n5ccc6c(=O)[nH]cnc65)O[C@@H]4COP(=O)(S)O[C@@H]2C3)c(=O)[nH]1", "note": "(single isomer, unassigned) [Example 43]", "values": [{"measurement": "% Effect at 30 μM relative to 2′3′-cGAMP", "setting": "[1]", "result": 120, "unit": "%"}, {"measurement": "EC50", "setting": "full-length HAQ STING", "result": 37, "unit": "nM"}, {"measurement": "EC50", "setting": "full-length WT STING", "result": 148, "unit": "nM"}]}, {"smiles": "Nc1ncnc2c1ncn2[C@@H]1O[C@@H]2CO[P@@](=O)(S)O[C@@H]3C[C@@H](CO[P@](=O)(S)O[C@H]2[C@@H]1F)O[C@H]3n1ccc(=O)n2ccnc12", "note": "(single isomer, unassigned) [Example 20]", "values": [{"measurement": "activation at 30 µM", "setting": "[1]", "result": 169, "unit": "%"}, {"measurement": "EC50", "setting": "full-length HAQ STING", "result": 15, "unit": "nM"}, {"measurement": "EC50", "setting": "full-length WT STING", "result": 83, "unit": "nM"}]}, {"smiles": "Nc1nc2c(nnn2[C@@H]2S[C@@H]3COP(=O)(S)O[C@H]4[C@H](F)[C@H](n5ccc6c(=O)[nH]cnc65)O[C@@H]4COP(=O)(S)O[C@@H]2[C@@H]3F)c(=O)[nH]1", "note": "(single isomer, unassigned) [Example 50]", "values": [{"measurement": "% Effect at 30 μM relative to 2′3′-cGAMP", "setting": "[1]", "result": 109, "unit": "%"}, {"measurement": "EC50", "setting": "full-length HAQ STING", "result": 4, "unit": "nM"}, {"measurement": "EC50", "setting": "full-length WT STING", "result": 9130, "unit": "nM"}]}, {"smiles": "Nc1nc2c(nnn2[C@@H]2O[C@@H]3COP(=O)(S)O[C@H]4[C@H](F)[C@H](n5ccc6c(=O)[nH]cnc65)O[C@@H]4COP(=O)(S)O[C@@H]2C3)c(=O)[nH]1", "note": "(stereo partly drawn) [Example 45, 5-amino-3-[(5S,7R,8R,12aR,14R,15S, 15aR)-15-fluoro-2,10-dioxido-14-(4-oxo-3,4-dihydro-7H-pyrrolo[2,3-d]pyrimidin-7-yl)-2,10-disulfanyl-octahydro-12H-5,8-methanofuro[3,2-l][1,3,6,9,11,2,10]pentaoxadiphosphacyclotetradecin-7-yl]-3,6-dihydro-7H-[1,2,3]triazolo[4,5-d]pyrimidin-7-one]", "values": [{"measurement": "activation at 30 µM", "setting": "[1]", "result": 135, "unit": "%"}, {"measurement": "EC50", "setting": "full-length HAQ STING", "result": 3, "unit": "nM"}, {"measurement": "EC50", "setting": "full-length WT STING", "result": 85, "unit": "nM"}]}, {"smiles": "Nc1nc2c(nnn2[C@@H]2O[C@@H]3COP(=O)(S)O[C@H]4C[C@H](n5ccc6c(=O)[nH]cnc65)O[C@@H]4COP(=O)(S)O[C@@H]2C3)c(=O)[nH]1", "note": "(single isomer, unassigned) [Example 42]", "values": [{"measurement": "% Effect at 30 μM relative to 2′3′-cGAMP", "setting": "[1]", "result": 72, "unit": "%"}, {"measurement": "EC50", "setting": "full-length HAQ STING", "result": 1, "unit": "nM"}, {"measurement": "EC50", "setting": "full-length WT STING", "result": 46, "unit": "nM"}]}, {"smiles": "Nc1ncnc2c1ncn2[C@@H]1O[C@@H]2CO[P@@](=O)(S)O[C@@H]3C[C@@H](CO[P@@](=O)(S)O[C@H]2[C@@H]1F)O[C@H]3n1ccc(=O)n2ccnc12", "note": "[Example 19, 8-[(2R,5S,7R,8R,10R,12aR,14R,15S,15aR)-14-(6-amino-9H-purin-9-yl)-15-fluoro-2,10-dioxido-2,10-disulfanyloctahydro-12H-5,8-methanofuro[3,2-l][11,3,6,9,11,2,10]pentaoxadiphosphacyclotetradecin-7-yl]imidazo[1,2-a]pyrimidin-5(8H)-one]", "values": [{"measurement": "% Effect at 30 μM relative to 2′3′-cGAMP", "setting": "[1]", "result": 7, "unit": "%"}, {"measurement": "EC50", "setting": "full-length HAQ STING", "result": 208, "unit": "nM"}, {"measurement": "EC50", "setting": "full-length WT STING", "result": 902, "unit": "nM"}]}]}
